Source: paper PMC10761119, “Phosphorylation-state dependent intraneuronal sorting of Aβ differentially impairs autophagy and the endo-lysosomal system” (Autophagy, 2023)

Experiments:
primary cortical neurons = experiment: ELISA of Aβ levels in the treatment media; assay type: cell-based, mouse; settings: 4 hours incubation, 500 nM, neurobasal FCS- PS- media, versus amount before incubation, n = 9, N = 3
Experimental: Primary cortical neurons (DIV14) were treated with 500 nM of monomeric/unaggregated Aβ variants ([…]β and p-[…]β) in neurobasal, FCS^- PS^- media. SH-SY5Y cells seeded on D1, were treated with Aβ variants (1 μM) on D3 in DMEM/F-12 media without serum and antibiotics. Control treatment included treatment with equal volume of 10 mM NaOH solution used for preparing the Aβ stock solutions, in respective cell culture medium. SH-SY5Y cells, after 16 h of transient expression of the reporter constructs, were treated with different Aβ variants, autophagy modulator substrates and respective controls in DMEM/F-12, FCS^- PS^- media for the mentioned time points. […] Cells were either collected by scraping using a cell-scraper or fixed with 4% PFA-PBS for 15 min at RT, for further immunocytochemistry experiments. Collected treatment media was centrifuged at 1000 g for 5 min, pellet discarded and supernatant frozen at -20°C until further usage. Plates (ThermoFisher Scientific, 44-2404-21) were coated with either […]6) or anti-pAβ antibodies ([…]11 and […]) as capture antibody at RT for 2 h and blocked with 1 mg/ml BSA solution in PBS. […] Multiple readings were recorded for a single well and averaged. In each experiment, each sample was analyzed in technical duplicate/triplicate wells as indicated and average values from an independent experiment are presented (Figures 1E, 3G, SA-D and Table S2).

SH-SY5Y cells = experiment: Autophagic flux with tandem reporter GFP-LC3-RFP-LC3Δ; assay type: cell-based, human; settings: Aβ 1 µM, 24 h; compared to control cells; n = 6, N = 3
Experimental: SH-SY5Y cells were transfected with either GFP-LC3-LC3Δ-RFP or mCherry-GFP-LC3B tandem constructs (0.5 μg/well +1 µl transfection reagent − 24 well plate) with Lipofectamine 2000 (Life Technologies, 11668019) in OptiMEM (Life Technologies, 11058021) in DMEM/F-12, FCS^− PS^− media. After 8 h, FCS^− PS^− media was changed to normal culture media, respectively. Transfection efficiency was around 50–60% in all analyzed coverslips.
SH-SY5Y cells seeded on D1, were treated with Aβ variants (1 μM) on D3 in DMEM/F-12 media without serum and antibiotics. Control treatment included treatment with equal volume of 10 mM NaOH solution used for preparing the Aβ stock solutions, in respective cell culture medium. […]
All images were processed and analyzed using Fiji ImageJ software. […] Distance from the plaque core (Figure 1B) was measured using the concentric circles plugin module. Fluorescence intensity of the green channel (Figure S3A-B), and the number of neurons positive for Aβ signals (Figure S3-D) were quantified using the processing module of Keyence software. […] Intensity of green and red channel for a particular ROI was calculated and ratios of the individual values were computed (Figure 6B and S7A). For computing the number of mCherry^+GFP^± vesicles or per cell (Figure 6D and S7B), cell outline was drawn manually and number of vesicles per cell (nucleus count – DAPI) was calculated. […]

With “non-phosphorylated amyloid-β [npAβ, reference compound]” the “Levels of Aβ in the treatment media after incubation with primary neurons” value (primary cortical neurons) was “significantly decreased” and the “RFP:GFP ratio (autophagic flux)” value (SH-SY5Y cells) was “tended to increase”.
